{
  "source": "patent US20240287614A1",
  "about": "“RECIPROCAL MICRORNA-MRNA PAIRINGS AS BIOMARKERS AND THERAPEUTIC TARGETS IN CANCER” (UNIVERSITY OF MARYLAND, EASTERN SHORE, priority 2023, published 2024)",
  "key": {"[1]": {"system": "mTOR and pmTOR", "assay": "Western blot of mTOR and pmTOR in cytoplasmic and nuclear fractions of prostate cancer cell lines", "format": "cell-based, human", "description": "(§1) The human cell lines used in the study included: 22Rv1, LNCaP, PC-3, RC77 T/E and MDA PCa 2b (prostate cancer cell lines), MDA MB 231 and MCF-7 (breast cancer cell lines), HT-29 and SW620 (colon cancer cell lines), A549 and H1299 (lung cancer cell lines). RWPE-1, HMEC, FHC, and BEAS-2B were used as normal control cell lines for prostate, breast, colon, and lung, respectively. Note that 22Rv1 is a castration-resistant […] prostate cancer cell line, while LNCaP and PC-3 were derived from lymph node and bone metastasis of […] prostate cancer patients, respectively. RC77 T/E was derived from a primary prostate cancer patient, and MDA PCa 2b was derived from bone metastasis of an prostate cancer patient. The cell lines described were used as in vitro cell models to evaluate the functional roles of miR-99b-5p/MTOR pairing in the […] prostate cancer, African American prostate cancer and solid tumors in general. The cells were grown in specific cell culture media described as follows: 22Rv1, LNCaP, MCF-7 and H1299 were cultured in RPMI-1640 with 10% fetal bovine serum (FBS), PC-3, A549 and FHC were cultured in DMEM with 10% FBS, RC77 T/E was cultured in Keratinocyte SFM with human recombinant epidermal growth factor (EGF) and bovine pituitary extract (BPE), MDA PCa 2b were cultured in BRFF-HPC1 with 20% FBS, HT-29 was cultured in McCory's with 10% FBS, SW620 and MDA MB 231 were cultured in L-15 with 10% FBS, HMEC was cultured in mammary epithelial cell basal medium with supplements, and BEAS-2B was cultured in BEBM base medium with BEBM supplement kit. Cells were maintained at 37° C. in a 5% CO2 incubator.\n(§2) The 22Rv1, LNCaP, PC-3, MDA PCa 2b, MCF7, H1299, A549, HT-29, SW620, MDA MB-231, HMEC and BEAS-2B cells were seeded at a density of 3×10^5 cells/well in 6-well plates. RC77 T/E cells were seeded at a density of 5×10^5 cells/well in 6-well plates. The cells were grown for 24 h and then transfected with nonsense/scrambled RNA (NS) and miR-99b-5p mimic (Ambion) using DharmaFECT4 transfection reagent (Dharmacon). After 24 h, fresh media were applied to replace the transfection reagent-containing media, then the cells were incubated for an additional 24 h.\nThe total proteins were extracted using M-PER extraction reagent with protease and phosphatase inhibitor cocktail (Thermo Fisher Scientific) according to manufacturer's protocol. Cytoplasm and nuclear proteins were extracted using Subcellular Protein Fractionation kit (Thermo Fisher Scientific) according to the manufacturer's protocol. Equal amounts of proteins were used based on the quantification using BCA assay kit (Thermo Fisher Scientific), and the samples were separated by electrophoresis using NuPAGE 4-12% or 8% Bis-Tris gels (Invitrogen). The gels were transferred to PVDF membranes (Bio-Rad) then the PVDF membranes were incubated with SuperBlock blocking buffer (Thermo Fisher Scientific). After 1 h, the PVDF membranes were incubated with primary antibodies overnight at 4° C., washed 3 times with 1×TBST, and then incubated with secondary antibody for 1 h at room temperature, then washed 5 times with 1×TBST. The results were analyzed with SuperSignal ECL substrates (Thermo Fisher Scientific) and a ChemiDoc XRS system (Bio-Rad). The primary and secondary antibodies used in the study were mTOR, pmTOR, AR, GAPDH, Lamin B1, β-actin, and anti-rabbit IgG-HRP antibodies from Cell Signaling Technology."}, "[2]": {"system": "AR", "assay": "Western blot of AR in total, cytoplasmic and nuclear protein fractions", "format": "cell-based, human", "description": "as §1, §2\nThe total proteins were extracted using M-PER extraction reagent with protease and phosphatase inhibitor cocktail (Thermo Fisher Scientific) according to manufacturer's protocol. […] Equal amounts of proteins were used based on the quantification using BCA assay kit (Thermo Fisher Scientific), and the samples were separated by electrophoresis using NuPAGE 4-12% or 8% Bis-Tris gels (Invitrogen). […] The results were analyzed with SuperSignal ECL substrates (Thermo Fisher Scientific) and a ChemiDoc XRS system (Bio-Rad). […]"}, "[3]": {"system": "HT-29, SW620, MDA MB 231, MCF7, A549, and H1299", "assay": "Caspase 3/7 activity-based apoptosis assay, colon, breast and lung cancer cell lines", "set-up": "species or system human", "description": "HT-29, SW620, MDA MB 231, MCF7, A549, and H1299 were seeded at a density of 3×10^4 cells/well in 96-well plates. The cells were grown overnight and then followed by transfections. After 24 h, fresh media were applied to replace the transfection reagent-containing media with […] of docetaxel or vehicle, then the cells were incubated for an additional 24 h. The Apo-ONE Caspase-3/7 Assay Kit (Promega Corporation) was used to measure apoptosis according to the protocol described by the manufacturer. Then, 100 μL of homogeneous Caspase-3/7 reagent was added to each well and the plate incubated at room temperature for 30 min to 2 h. Fluorescence was detected for measuring (at wavelengths of 499/521 nm excitation/emission) the apoptosis state (Caspase 3/7 activity) using Biotek Synergy HT Microplate Reader (BioTek)."}, "[4]": {"details": "all European American and African American prostate cancer cell lines, 48 h transfection, vs NS"}, "[5]": {"details": "metastatic prostate cancer cell line MDA PCa 2b"}},
  "data": [
    {"substance": "miR-99b-5p mimic: miRNA mimic of miR-99b-5p (SEQ ID NO: 2, CACCCGUAGAACCGACCUUGCG), purchased from Ambion (listed as RNA, chemistry not given here; listed as Homo sapiens)", "values": [
      {"measurement": "mTOR in nuclear fractions (Western blot)", "setting": "[1]; [4]", "result": "moderate to significant reduction"},
      {"measurement": "pmTOR in nuclear fractions (Western blot)", "setting": "[1]; [4]", "result": "moderate to significant reduction"},
      {"measurement": "cytoplasmic mTOR (Western blot)", "setting": "[1]; all the prostate cancer cell lines, vs NS", "result": "slight to no reduction"},
      {"measurement": "nuclear mTOR (Western blot)", "setting": "[1]; [5]", "result": "significant decrease"},
      {"measurement": "nuclear pmTOR (Western blot)", "setting": "[1]; [5]", "result": "significant decrease"},
      {"measurement": "cytoplasmic AR (Western blot)", "setting": "[2]; 22Rv1 and MDA PCa 2b cells", "result": "slight to moderate decrease"},
      {"measurement": "AR expression levels, total lysates (Western blot)", "setting": "[2]; MCF-7, 22Rv1, MDA PCa 2b, mimic vs NS", "result": "significantly reduced"},
      {"measurement": "nuclear AR protein levels (Western blot)", "setting": "[2]; MCF-7, 22Rv1, and MDA PCa 2b cells", "result": "significantly decreased"},
      {"measurement": "cytoplasmic AR (Western blot)", "setting": "[2]; MCF-7 cells", "result": "no change"},
      {"measurement": "cell apoptosis (caspase 3/7 activity) in the presence of docetaxel", "setting": "[3]; HT-29, SW620, MCF-7, A549, H1299, 11 mM of docetaxel, 24 h", "result": "moderate to significant cell apoptosis"},
      {"measurement": "apoptosis (caspase 3/7 activity), single agent", "setting": "[3]; colon, breast, lung cancer cells, without docetaxel (vehicle)", "result": "not sufficient to initiate significant apoptosis"}
    ]}
  ]
}
